Reference: paper PMC11117716 (Biomolecules, 2024)

Tests used:
[1] = Plasma pharmacokinetics after oral Posiphen in humans (LC-MS/MS); assay type: in vivo, human; settings: for Tmax: Posiphen PO 80 mg/day (1.1 mg/kg), n = 4
Procedure: (§1) This paper describes data from multiple studies.
Samples were frozen and then stored at −80 °C.
(§2) The detection limit was 0.025 ng/mL.

[2] = LogD; assay type: physicochemical
[3] = tested on: neurotoxic aggregating proteins; settings: cited from earlier work
[4] = Posiphen pharmacokinetics compared across species (mouse, rat, dog, human); assay type: in vivo
Procedure: as §1, §2

[5] = Plasma pharmacokinetics after oral Posiphen in Beagle dogs (LC-MS/MS); parameters: species or system dog; settings: for Mean plasma concentration: Beagle dogs, Posiphen 20 mg/kg; for Tmax: dog plasma, Posiphen PO 20 mg/kg, n = 12
Procedure: (§3) In rats and dogs, blood samples were centrifuged, and the resultant plasma was separated, and 200 µL (rat) or 400 µL (dog) of plasma was transferred to uniquely labeled pre-chilled polypropylene tubes containing 5 µL (rat) or 10 µL (dog) Dichlorvos spiking solution (nominal concentration of 0.82 mg/mL in MeOH/Water, 20/80, v/v).
as §2

[6] = Plasma pharmacokinetics after oral Posiphen in CD-1 mice (LC-MS/MS); settings: for Mean plasma concentration: CD-1 mice, Posiphen 65 mg/kg
Procedure: (§4) The animal PKs were taken from multiple GLP toxicology studies, biomarker studies, and efficacy studies. […] Sample size (n) represents the number of animals at each time point of sample collection. […] The dose volume was determined according to animals’ weight collected on the dosing day.
(§5) In mice, blood samples were collected via the saphenous vein or other suitable blood collection site into a microcentrifuge tube containing the anti-coagulant K2-EDTA on wet ice and processed for plasma. For samples collected within the first hour of dosing, ±1 min is acceptable, while for all other timepoints, samples were taken within 5% of the scheduled time and are not considered as protocol deviations. Plasma samples were centrifuged (3200× g for 10 min at 4 °C) within an hour of collection. CSF samples were collected with 3 μL volume per time point, frozen on dry ice, and stored at −60 °C for further analysis. For brain collection in mice, animals were euthanized using CO2 inhalation. Whole brain was collected, washed in cold saline, dried, and homogenized immediately […]. Homogenizing buffer MeOH/15 mM PBS (1:2, v:v) was used at a ratio of 1:9 (1 g of tissue with 9 mL of buffer; the dilution ratio is 10).
(§6) In humans, the bioanalytical method was performed in accordance with current FDA, Industry Guidelines, and OECD Principles. […] The sample analysis was conducted in accordance with current GCP and GLP principles, and the results were presented for pharmacokinetic profiling (Absorption Systems, Exton, PA, USA). Calibration ranges for each analyte ranged from 1000 ng/mL to 1 ng/mL (or ng/g for brain) in plasma, brain, and CSF matrices. The detection limit was 0.025 ng/mL. The following PK parameters were collected for the purpose of this manuscript: maximum concentration (Cmax), time to maximum drug concentration (Tmax), half-life (T1/2), and the Area Under the Curve (AUC).
Blood plasma samples were collected at various time points within the initial 8 h following administration (6 h for humans). Plasma concentrations (ng/mL) were measured over the 8 h observation window to characterize the maximum concentration (Cmax), the time to peak drug concentration (Tmax), the half-life (T1/2), and the Area Under the Curve (AUC).

[7] = tested on: acetylcholinesterase; settings: cited from earlier work
[8] = Plasma pharmacokinetics after oral Posiphen in Sprague Dawley rats (LC-MS/MS); assay type: in vivo, rat
Procedure: as §3, §2

[9] = in vivo; settings: CD-1, mouse; for T1/2 / Tmax / Tmax (time of Cmax) / Cmax: po; for Cmax: 65 mg/kg
Procedure: as §4, §5, §6

[10] = human; side effects nausea and vomiting; cited from earlier work
[11] = both sexes, Beagle, dog, in vivo, po, 20 mg/kg
[12] = both, CD-1, mouse, in vivo, po, 65 mg/kg
[13] = both sexes, Sprague Dawley, rat, in vivo, 40 mg/kg
[14] = both sexes, Sprague Dawley, rat, in vivo, po, 40 mg/kg

CN1CC[C@]2(C)c3cc(OC(=O)Nc4ccccc4)ccc3N(C)C12.O=C(O)C(O)C(O)C(=O)O (stereo partly drawn) [Posiphen, (3aR)-1,3a, 8-trimethyl-1,2,3,3a, 8,8a-hexahydropyrrolo (2,3-b) indol-5-yl phenylcarbamate tartrate]
Primary compound in plasma ([1]; human plasma): primary compound | Tmax ([1]; human plasma): 1.45 h | Cmax ([1]; human, in vivo, po): 117 ng/mL | Cmax ([1]; human, in vivo, po, 1.1 mg/kg): 120 ng/mL | Tmax ([1]; human, in vivo, po, 1.1 mg/kg, human plasma, read-out: Tmax): 1 to 2 h | AUC(0-t) ([1]; human, in vivo, po, 1.1 mg/kg, read-out: AUC (0–8 h)): 310 ng·h/mL | AUC(0-t) ([1]; human, in vivo, po, read-out: AUC (0-t)): 565 ng·h/mL | logD [2]: 2.2 | TINAP activity [3]: have TINAP | half-life ([4]; CSF or brain, oral): > 12 h | Time to peak ([4]; all analyzed species: mouse, rat, dog, human): ≤ 2 h | Mean plasma concentration ([5]; 0.25 h): 2.34 ng/mL | Mean plasma concentration ([5]; 0.5 h): 241 ng/mL | Mean plasma concentration ([5]; 1 h): 326 ng/mL | Mean plasma concentration ([5]; 2 h): 203 ng/mL | Mean plasma concentration ([5]; 4 h): 32.3 ng/mL | Mean plasma concentration ([5]; 8 h): 4.4 ng/mL | Mean plasma concentration ([5]; 12 h): 1.27 ng/mL | Cmax [5, 11]: 402 ng/mL | half-life [5, 11]: 1.96 h | Tmax ([5]; both sexes, Beagle, dog, in vivo, po, 20 mg/kg, read-out: Tmax): 1 to 2 h | AUC(0-t) ([5]; both sexes, Beagle, dog, in vivo, po, 20 mg/kg, read-out: AUC (0–8 h)): 756 ng·h/mL | Tmax ([5]; 20 mg/kg): 1.18 h | Mean plasma concentration ([6]; 0.25 h): 937 ng/mL | Mean plasma concentration ([6]; 0.5 h): 939 ng/mL | Mean plasma concentration ([6]; 1 h): 610 ng/mL | Mean plasma concentration ([6]; 2 h): 571 ng/mL | Mean plasma concentration ([6]; 4 h): 19.5 ng/mL | AUC(0-t) ([6]; Table 2, mouse plasma, oral Posiphen): 1707 ng·h/mL | AUC(0-t) [6, 12]: 1710 ng·h/mL | Cmax [6, 12]: 939 ng/mL | half-life ([6]; both, CD-1, mouse, in vivo, po, 65 mg/kg, T1/2, mouse plasma, Posiphen PO 65 mg/kg, n = 7): 0.56 h | Tmax ([6]; both, CD-1, mouse, in vivo, po, 65 mg/kg, Tmax, mouse plasma, Posiphen PO 65 mg/kg, n = 7): < 1 h | T1/2 ([6]; mouse plasma, Posiphen PO 65 mg/kg, n = 7, 65 mg/kg): 0.562 h | Acetylcholinesterase inhibitory (AChEI) activity [7]: no acetylcholinesterase inhibitory (AChEI) activity | concentration at 0.25 h [8, 13]: 1090 ng/mL | concentration at 1 h [8, 13]: 771 ng/mL | concentration at 2 h [8, 13]: 381 ng/mL | concentration at 4 h [8, 13]: 243 ng/mL | concentration at 8 h [8, 13]: 234 ng/mL | Cmax [8, 14]: 1180 ng/mL | half-life [8, 14]: 1.03 h | Tmax ([8]; both sexes, Sprague Dawley, rat, in vivo, po, 40 mg/kg, rat plasma, Posiphen PO 40 mg/kg, n = 6): < 1 h | AUC(0-t) ([8]; both sexes, Sprague Dawley, rat, in vivo, po, 40 mg/kg, read-out: AUC (0–8 h)): 1140 ng·h/mL | Primary compound in plasma ([8]; rat plasma): primary compound | Kp [9]: 5.04 | Kp ([9]; in vivo): 0.17 | T1/2 ([9]; in vivo): 0.5 h | Tmax ([9]; in vivo): 2.32 h | Tmax (time of Cmax) ([9]; in vivo): 0.5 h | Cmax ([9]; in vivo, Cmax): 163 ng/mL | T1/2 [9]: 0.5 h | Tmax [9]: 0.74 h | Tmax (time of Cmax) [9]: 0.5 h | Cmax [9]: 4740 ng/mL | Maximum tolerated dose [10]: 160 mg
